Measured values from US9394338B2, “Glutathione analogs and uses thereof” (REGENTS OF THE UNIVERSITY OF MINNESOTA, priority 2011, dated 2016).

Key:
[1] = system: equine kidney γ-glutamyltranspeptidase; assay: γ-Glutamyltranspeptidase assay (stability to γ-GT mediated degradation); assay type: in vitro ADME
Method: γ-Glutamyltranspeptidase Assay. […] The plates were developed alongside authentic predicted degradation products with the solvent system: 4:1.5:2; Butanol/Acetic acid/Water. Visual detection of TLC spots was performed under UV and also by iodine and fluorescamine staining solution.

[2] = target: T1, yeast glyoxalase I (Saccharomyces cerevisiae, UniProt P50107); assay: Glyoxalase I enzyme kinetics assay; assay type: biochemical; details: yeast Glx-I, MG, 30° C., phosphate buffer pH 6.6
T1 construct: purchased Sigma
T1 sequence (P50107 1-326): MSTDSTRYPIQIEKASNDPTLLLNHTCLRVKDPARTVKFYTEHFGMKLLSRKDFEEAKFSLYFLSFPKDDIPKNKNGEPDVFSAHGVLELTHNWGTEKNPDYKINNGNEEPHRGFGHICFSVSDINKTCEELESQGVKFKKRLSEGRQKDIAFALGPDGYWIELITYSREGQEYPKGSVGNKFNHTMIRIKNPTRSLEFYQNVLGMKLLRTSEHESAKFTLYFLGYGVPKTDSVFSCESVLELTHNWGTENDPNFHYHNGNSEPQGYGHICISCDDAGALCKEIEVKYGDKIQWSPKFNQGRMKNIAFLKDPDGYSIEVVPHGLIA
Method: Glyoxalase I Enzyme Kinetics Assay. The glutathione analog, Ψ-GSH and asparthione were examined for their ability to act as substrates for the yeast glyoxalase I mediated […] of MG. The commercial 40% methylglyoxal solution was distilled to remove polymerization products. Enzyme assays were performed (30° C., 0.05 M phosphate buffer (pH 6.6)) using a thermostated Beckman DU® 7400 spectrophotometer. Fresh solutions of GSH, Ψ-GSH and asparthione were prepared on the day of the assays with distilled, deionized water. In each assay, the cell contained a total volume of 3.0 mL which was no more than 6.0 mM with respect to methylglyoxal and 1.3 mM with respect to GSH or its analogs. […] Data were analyzed utilizing an Enzyme kinetics module of Sigmaplot 9.0 from Systat Software Inc.

[3] = system: SH-SY-5Y cells; assay: Protection against H2O2 cytotoxicity, MTT assay; assay type: cell-based, human; details: preincubation 24 h, H2O2 50 μM 30 min
Method: Similar procedures were used for determining the protective effect of GSH and its analog against H2O2 cytotoxicity. After preincubation of cells with GSH or Ψ-GSH for 24 hours, cells were exposed to H2O2 (50 μM) for 30 min and the media was replaced with fresh media. Cells were incubated for an additional 24 h after which the cell viability was the determined by the MTT assay as described earlier.

[4] = system: SH-SY-5Y cells; assay: H2O2 and MG-induced cellular oxidative stress (DCFH-DA); assay type: cell-based, human; details: for intracellular ROS after H2O2 exposure: H2O2 500 μM, co-incubation with 250 μM compound; for ROS generated by MG treatment: MG 1 mM, 180 min, 250 μM compound
Method: H2O2 and MG-Induced Cellular Oxidative Stress. SH-SY-5Y cells were cultured in 96-well black plates at the density of 10,000 cells/well and were allowed to reach confluence (˜48 h). The cells were then treated with a solution of 2,7-dichlorofluorescin diacetate (DCFH-DA, 20 μM) in RPMI 1640 medium without FBS for 45 min. Extracellular DCFH-DA was removed by washing twice with PBS. To induce oxidative stress, the cells were treated with hydrogen peroxide (500 μM) or methylglyoxal (1 mM) in RPMI media without FBS in presence and absence of GSH or Ψ-GSH (250 μM) for 90 min or 180 min at 37° C. in the dark. The cells were washed with PBS and then lysed by adding 250 μl of 90% DMSO/10% PBS for 10 min in the dark at room temperature with shaking. The fluorescence intensity in each well was measured in the fluorescence plate reader (BioTek SynergyHT, VT, USA) at an excitation of 485 nm and an emission of 538 nm and normalized to the protein content in each well as determined by the BCA assay. (Wang et al., Free Radic. Res. 2008, 42, 435-441)

[5] = system: C57BL/6 mice; assay: Short-term toxicity / dose determination study; assay type: in vivo; details: i.p. 3×/week for two weeks, highest dose 2000 mg/Kg
Method: Dose Determination Study: Ψ-GSH was injected intraperitoneally and orally in wild type C57BL/6 mice (6-8 week old, 4/group) three times a week for two weeks. The doses of Ψ-GSH employed ranged from 100 mg/kg to 2000 mg/kg. Body weight (twice a week), complete blood count (CBC) analysis and liver, kidney and lung histology was considered to be indicative of toxicity from the drug treatment. Histological sections of tissue were analyzed by a board-certified pathologist at the Masonic Cancer Center-Comparative Pathology Shared Resource, University of Minnesota.

[6] = system: APP/PS1 mice; assay: Morris water maze; assay type: in vivo; details: for escape latency, hidden platform: 500 mg/Kg i.p. 3×/week
Method: Efficacy Study Design. To determine the effect of intraperitoneal and oral Ψ-GSH treatment, the study was divided in four groups (10 mice/group). 1. APP/PS1 mice-vehicle control, 2. APP/PS1 mice-Ψ-GSH i.p. 500 mg/kg, 3. APP/PS1 mice-Ψ-GSH oral 500 mg/kg, 4. Non-transgenic wild type mice-vehicle control. All the animals in the above-said groups were treated with saline or Ψ-GSH three times a week for 12 weeks, starting at the age of three to four months. Eleven weeks after the start of the treatment, the animals were tested in the Morris water maze, and twelve weeks after the start of the treatment, the animals were sacrificed for histopathological analysis.
Behavior Study. Eleven weeks after the beginning of the treatment, the animals were tested for one week in an open field water maze. The maze consists of a white circular tank (120 cm diameter) of water (23±1° C.) rendered opaque with nontoxic crayola paint. The mice were placed in the water at the edge of the pool and allowed to swim in order to locate a hidden, but fixed escape platform, using extra-maze cues.
On Day 1, the mice were be placed in the pool and allowed to swim freely for 60 s. If an animal could not locate the hidden platform within that time, it was placed manually upon the platform and left there for 10 s. Each animal was tested in four trials per day. The inter-trial interval was 15 min. Each start position was used equally in a pseudorandom order, and the animals were always placed in the water facing the wall. The platform was placed in the middle of northeast quadrant of the pool (approximately 30 cm from the side of the pool). The mouse's task throughout the experiment was to find and climb onto the platform, escaping the water. Once the mouse learned the task (Day 4, Trial 16), a probe trial was conducted 24 hours after the last trial of acquisition on Day 4.
In the probe trial (i.e., Trial 17, day 5), the platform was removed from the pool and animals were allowed to swim for 60 s. Their ability to remember the location of the previously present escape platform was quantified in proportion to the residence time of the mouse in the quadrant previously containing the platform. Immediately following the probe trial, visible platform was reintroduced at a different location (i.e southeast quadrant) along with a visible flag. Mice were trained to locate this cued platform in 4 trials conducted in the aforementioned manner.

| Compound | time to complete degradation by γ-GT ([1]; incubation with γ-GT) [min] | slope for initial velocity vs. substrate concentration [2] | protection against peroxide cytotoxicity [3] | intracellular ROS after H2O2 exposure [4] | ROS generated by MG treatment [4] | degradation during incubation with γ-GT ([1]; incubation with γ-GT for up to 24 h) | ALT, AST, ALP, blood urea nitrogen (BUN) and creatinine levels [5] | Body weights and CBC [5] | Histopathology of lung, liver and kidney tissue vs saline-treated mice [5] | escape latency, hidden platform ([6]; APP-PS1 mice, day 3 of training) [s] | escape latency, hidden platform ([6]; APP-PS1 mice, day 4 of training) [s] | time in the target quadrant, probe trial ([6]; APP-PS1 mice, i.p., 24 h after training) [%] | path length ([6]; APP-PS1 mice, i.p., last day of training) [m] | Path lengths vs saline-treated controls ([6]; APP-PS1 mice, oral) | escape latency, visible platform ([6]; APP/PS1 mice, i.p., end of four trials) [s] | time in the target quadrant, probe trial ([6]; APP/PS1 mice, oral) [%] | spatial memory development and escape latencies vs saline-treated group ([6]; APP/PS1 mice, oral 3×/week for 3 months, significant (p<0.05) on day 2 only) |
| --- | --- | --- | --- | --- | --- | --- | --- | --- | --- | --- | --- | --- | --- | --- | --- | --- | --- |
| N[C@@H](CCC(=O)N[C@@H](CS)C(=O)NCC(=O)O)C(=O)O [GSH, Glutathione] | ≤ 30 | 0.1954±0.0216 | dose-dependent protection | reduction in ROS to the levels in control cells | neutralized effectively |  |  |  |  |  |  |  |  |  |  |  |  |
| N[C@@H](CNC(=O)N[C@@H](CS)C(=O)NCC(=O)O)C(=O)O [Ψ-GSH, γ-Gla-Cys-Gly-OH] |  | 0.0498±0.0040 | dose-dependent protection | reduction in ROS to the levels in control cells | neutralized effectively | No appreciable degradation | Unaffected | insignificantly affected | no significant difference | 17.91 ± 4.65 | 14.64 ± 2.61 | 38.43±3.73 | 2.69±0.47 | insignificantly different | 6.75 ± 1.49 | 21.76±5.36 | Trends toward higher spatial memory development and lower escape latencies |
